Converted amounts (≈) assume the structure as drawn.
Columns and labels:
[1] = tested on: S. aureus ATCC 29213; assay: Serial passage resistance induction; format: cell-based, Staphylococcus aureus; conditions: 20-day passages at 0.5× MIC
Method: (§1) The bacteria were grown in a medium containing 0.5× MIC of each compound to prepare the bacterial suspension for the next MIC determination. The MICs were then recorded after incubation at 37°C for 24 hours. Daily passages were continued until the initial MIC increased by more than fourfold. The stability of acquired resistance was investigated by MIC determination and repeated for 20 days.

[2] = tested on: A. baumannii ATCC 17978; assay: MIC, broth microdilution; format: cell-based; conditions: Acinetobacter baumannii, ATCC17978; 24-hour incubation, MHB
Method: (§2) MIC was determined using the broth microdilution method in accordance with Clinical and Laboratory Standards Institute guidelines. All compounds were dissolved in dimethyl sulfoxide (DMSO; final DMSO concentration of less than 0.5%) and sterile double-distilled water and then diluted with Mueller-Hinton broth (MHB). Each compound’s stock solution was serially twofold diluted, resulting in concentrations ranging from 0.39 to 100 μg/ml, and thereafter added to sterile 96-well plates. All bacterial cell suspensions were adjusted in MHB to attain a starting inoculum of 1 × 10^6 cells/ml. A total of 100 μl volume of the bacterial suspension was then added to each well. Following a 24-hour incubation at 37°C, the optical density at 600 nm (OD600) was confirmed by measuring absorbance at 600 nm with a BioTek microplate reader. […] All measurements were repeated three times with duplicates each time.

[3] = tested on: A. baumannii R2889; assay: MIC, broth microdilution; format: cell-based; conditions: Acinetobacter baumannii, 24-hour incubation, MHB
Method: as §2

[4] = tested on: K. pneumonia ATCC 10031; assay: MIC, broth microdilution; format: cell-based; conditions: Klebsiella pneumoniae, ATCC10031; 24-hour incubation, MHB
Method: as §2

[5] = tested on: K. pneumonia ATCC 14581; assay: MIC, broth microdilution; format: cell-based; conditions: Klebsiella pneumoniae, ATCC14581; 24-hour incubation, MHB
Method: as §2

[6] = tested on: MRSA N315; assay: MIC, broth microdilution; format: cell-based; conditions: Staphylococcus aureus, 24-hour incubation, MHB, read-out: MIC90 MRSA N315
Method: as §2

[7] = tested on: MRSA NCTC 10442; assay: MIC, broth microdilution; format: cell-based; conditions: Staphylococcus aureus; 24-hour incubation, MHB; read-out: MIC90 MRSA NCTC 10442
Method: as §2

[8] = tested on: P. aeruginosa ATCC 9027; assay: MIC, broth microdilution; format: cell-based; conditions: Pseudomonas aeruginosa, ATCC9027; 24-hour incubation, MHB
Method: as §2

[9] = tested on: S. aureus ATCC 29213; assay: MIC, broth microdilution; format: cell-based; conditions: Staphylococcus aureus, ATCC29213, 24 h, 24-hour incubation, MHB; read-out: MIC90 S. aureus ATCC 29213
Method: as §2

[10] = tested on: E. coli ATCC 25922; assay: MIC, broth microdilution; format: cell-based, Escherichia coli; conditions: 24-hour incubation, MHB
Method: as §2

[11] = tested on: rabbit erythrocytes; assay: Hemolysis assay; format: cell-based; conditions: concentration causing 50% hemolysis of red blood cells; 1 hour, 37°C
Method: The hemolytic activity of antimicrobial agents was investigated as previously described ([70]). Briefly, the rabbit erythrocytes were centrifuged at 2500 rpm for 3 min before being washed twice with sterile phosphate-buffered saline (PBS) (pH 7.4). Subsequently, the erythrocytes were diluted with PBS to a final concentration of 8% (v/v). The DMSO-dissolved compounds were twofold serially diluted in PBS to achieve a final concentration with DMSO less than 0.5%. […] Sterile PBS and 0.2% Triton X-100 were used as negative and positive controls, respectively. After 1 hour of incubation at 37°C, the tested samples were centrifuged at 2500 rpm for 5 min, and aliquots of the supernatant were added to 96-well microplates. The hemoglobin release was determined by measuring the absorbance at 576 nm using a BioTek multimode reader. The percentage of hemolytic activity was calculated using the following formula: Hemolysis rate (%) = [OD576 (compound) − OD576 (PBS)]/[OD576 (Triton X-100) − OD576 (PBS)] × 100. All measurements were repeated three times with duplicates each time.

[12] = tested on: Gram-positive bacteria; assay: MIC, summary over Gram-positive strains; format: cell-based; conditions: read-out: MICs against Gram-positive bacteria, three Gram-positive strains
Method: as §2

[13] = tested on: K. pneumoniae; assay: MIC, summary over K. pneumoniae strains; format: cell-based; conditions: Klebsiella pneumoniae, two strains; read-out: MICs against K. pneumoniae
Method: as §2

[14] = CCK-8 cytotoxicity assay; format: cell-based; conditions: mouse, NCTC clone 929 fibroblast cells, 25 μg/ml, read-out: %Viable cells NCTC clone 929 cells
Method: Cytotoxicity of the compound tested was assessed by CCK-8 assays as previously described ([71]). […] Following a 24-hour incubation, 10 μl of CCK-8 reagent was added to each well and incubated for 1 hour. The absorbance at 450 nm was measured by a microplate reader. All measurements were repeated three times with duplicates each time.

[15] = tested on: P. aeruginosa ATCC 9027; assay: Serial passage resistance induction; format: cell-based, Pseudomonas aeruginosa; conditions: 20-day passages at 0.5× MIC
Method: as §1

[16] = tested on: E. coli ATCC 25922; assay: RNA-seq transcriptome response; format: cell-based, Escherichia coli; conditions: 4× MIC, 2 hours
Method: After exposure, 1-ml aliquots of cells were immediately pelleted at 4°C by centrifugation for 2 min at 2000 rpm. The supernatants were removed and immediately frozen in liquid nitrogen. The samples were stored at −80°C for later total RNA isolation. Total RNA was extracted using the bacterial RNA kit (Omega Bio-Tek, USA) according to the manufacturer’s instructions. The RNA integrity number values were obtained to assess RNA quality using an Agilent Genomics 2200 Tape Station instrument.
A total amount of 2 to 5 ng of the RNA per sample was executed as the input material to construct each cDNA library for RNA-seq using the NEBNext Ultra Directional RNA Library prep kit from Illumina. The quality of the resulting libraries was checked using Agilent High Sensitivity DNA chips to ensure proper library size distribution and the absence of small adapters.
Read mapping was aligned using Bowtie2 ([74]). HTSeq v0.6.1 was used for quantification of expression levels ([75]). DESeq2 on the R package (v1.12.4) was used to calculate DEGs. Differential expression was computed using edgeR: exactTest for each treatment versus the untreated control ([76]). The E. coli database used for mapping was GCF_017357505.1_ASM1735750v1_genomic.fna. Both the GO and KEGG (KEGG Ortholog database) enrichment analyses were done with the Fisher’s exact test. All P values were adjusted with the Benjamini-Hochberg procedure to generate false discovery rates (adjusted P values). GO enrichment analysis was carried out using the clusterProfiler package on the R platform ([77]). KEGG pathway mapping and figure generation were performed with the PathView website ([78]). COG of protein databases were searched with an E value of 1e^-5. For hierarchal clustering analysis of gene expression, the gene expression levels were normalized to z scores of log10 (FPKM + 1), where FPKM is fragments per kilobase per million. For hierarchal clustering analysis of the regulation of transcription factors, the unweighted pair group method with arithmetic mean (UPGMA) method was used as the clustering method. […] Volcano plots were generated by plot_volcano from soothsayer (https://github.com/jolespin/soothsayer) in Python v.3.6.6. Directed networks were constructed and plotted using NetworkX and Matplotlib Python packages, respectively. Hierarchical clustering analysis and heatmap calculation were performed with the pheatmap package on the R platform. The umap package on the R platform was used for uniform manifold approximation and projection (UMAP) analysis of FPKM vectors of each transcriptome. The figures were created via the ggplot2 package ([79]).

## CCn1cc(C(=O)O)c(=O)c2cc(F)c(N3CCNCC3)cc21 [norfloxacin, reference compound]
[1]
  increase in MIC values during passages: approximately 16 fold

## CC(C)=CCOc1cc(OCCCCCCNC(=N)N)cc2oc3cc(OCCCCCCNC(=N)N)ccc3c(=O)c12 [XT44]
[2]
  MIC90: 6.25 µg/mL (≈ 10.5 µM)
[3]
  MIC90: 12.5 µg/mL (≈ 21 µM)
[4]
  MIC90: 0.78 µg/mL (≈ 1.31 µM)
[5]
  MIC90: 0.78 µg/mL (≈ 1.31 µM)
[6]
  MIC90: 0.098 µg/mL (≈ 0.165 µM)
[7]
  MIC90: 0.098 µg/mL (≈ 0.165 µM)
[8]
  MIC90: 25 µg/mL (≈ 42 µM)
[9]
  MIC90: 0.098 µg/mL (≈ 0.165 µM)
[10]
  MIC90 E. coli ATCC 25922: 1.56 µg/mL (≈ 2.62 µM)
[10]; Escherichia coli, ATCC25922, 24 h, read-out: MIC90 E. coli ATCC 25922
  MIC90: 1.56 to 12.5 µg/mL (≈ 2.62 to 21 µM)
[11]
  HC50: >200 µg/mL
[12]
  MIC: 0.098 to 1.56 µg/mL (≈ 0.165 to 2.62 µM)
[13]
  MIC: 0.78 µg/mL (≈ 1.31 µM)
[14]
  viability at 24 h, 25 μg/ml: 4.87 ± 0.4%

## O=C(O)c1cn(C2CC2)c2cc(N3CCNCC3)c(F)cc2c1=O [CPF, ciprofloxacin, reference compound]
[15]
  increase in MIC values during passages: ~64 fold
[16]
  genes expressed: 4682 genes
[16]; vs untreated
  Log2FC dnaE (DNA polymerase III subunit alpha): 1.7739
  Log2FC dnaN (DNA polymerase III subunit beta): 3.0865
  Log2FC dnaQ (DNA polymerase III subunit epsilon): 1.3670
  Log2FC dnaT (primosomal protein DnaT): 2.2444
  Log2FC dnaX (DNA polymerase III subunit gamma/tau): 1.7268
  Log2FC gyrA (DNA topoisomerase (ATP-hydrolyzing) subunit A): 2.2544
  Log2FC gyrB (DNA topoisomerase (ATP-hydrolyzing) subunit B): 2.4048
  Log2FC holB (DNA polymerase III subunit delta'): 1.9890
  Log2FC holD (DNA polymerase III subunit psi): 2.4551
  Log2FC parC (DNA topoisomerase IV subunit A): 1.5215
  Log2FC parE (DNA topoisomerase IV subunit B): 2.4557
  Log2FC priA (primosomal protein N'): 2.8529
  Log2FC priB (primosomal replication protein N): 3.5288
  Log2FC priC (primosomal replication protein N''): 1.7101
  Log2FC recA (recombinase RecA): 6.2751
  Log2FC recF (DNA replication/repair protein RecF): 2.2046
  Log2FC recG (ATP-dependent DNA helicase RecG): 1.1384
  Log2FC recJ (single-stranded-DNA-specific exonuclease RecJ): 1.9882
  Log2FC recO (DNA repair protein RecO): 1.9736
  Log2FC recR (recombination mediator RecR): 1.8874
  Log2FC ruvA (Holliday junction branch migration protein RuvA): 2.8598
  Log2FC ruvB (Holliday junction branch migration DNA helicase RuvB): 3.4475
  Log2FC ruvC (crossover junction endodeoxyribonuclease RuvC): 1.8052
  Log2FC ssb1 (single-stranded DNA-binding protein SSB1): 2.6468
  down-regulated genes: 130 genes
  up-regulated genes: 2246 genes
[16]; vs untreated, P < 0.05, absolute log2 fold change > 1
  differentially expressed genes: 2376 genes

Source: paper PMC11881906, “Development of xanthone derivatives as effective broad-spectrum antimicrobials: Disrupting cell wall and inhibiting DNA synthesis” (Science Advances, 2025)
